Results published in ChEMBL document CHEMBL1155762, “A new naphthopyrone derivative from Cassia quinquangulata and structural revision of quinquangulin and its glycosides” (2001).
Converted amounts (≈) assume the structure as drawn.

Assays:
Staphylococcus aureus [1] = assay: Antibacterial activity against Staphylococcus aureus ATCC 6538 after 24 hrs; format: functional; conditions: ATCC 6538, 24 h
Staphylococcus aureus [2] = assay: Antibacterial activity against methicillin-resistant Staphylococcus aureus ATCC 33591 after 24 hrs; format: functional; conditions: ATCC 33591, 24 h

Compound | MIC (Staphylococcus aureus [1]) [µg/mL] | MIC (Staphylococcus aureus [2]) [µg/mL]
COc1cc(O)c2c(O)c3c(=O)cc(C)oc3cc2c1C [QUINQUANGULIN] | 3.12 (≈ 10.9 µM) | 6.25 (≈ 21.8 µM)
CO[C@H]1/C=C/O[C@@]2(C)Oc3c(C)c(O)c4c(O)c(c(/C=N/N5CCN(C)CC5)c(O)c4c3C2=O)NC(=O)/C(C)=C\C=C\[C@H](C)[C@H](O)[C@@H](C)[C@@H](O)[C@@H](C)[C@H](OC(C)=O)[C@@H]1C [RIFAMPIN] | 0.005 (≈ 0.00608 µM) | < 0.005
CC[C@H]1OC(=O)[C@H](C)[C@@H](O[C@H]2C[C@@](C)(OC)[C@@H](O)[C@H](C)O2)[C@H](C)[C@@H](O[C@@H]2O[C@H](C)C[C@H](N(C)C)[C@H]2O)[C@](C)(O)C[C@@H](C)C(=O)[C@H](C)[C@@H](O)[C@]1(C)O [ERYTHROMYCIN] | 1.25 (≈ 1.7 µM) | 
